Laboratory results as given in ChEMBL document CHEMBL3046879, “Synthesis, antimicrobial evaluation, and QSAR analysis of 2-isopropyl-5-methylcyclohexanol derivatives” (Med Chem Res, 2012).

How the values were obtained:
Aspergillus niger = test: Antimicrobial activity against Aspergillus niger MTCC 2425 after 7 days by serial dilution method; assay type: functional
Candida albicans = test: Antimicrobial activity against Candida albicans MTCC 227 after 2 days by serial dilution method; assay type: functional
Bacillus subtilis = test: Antimicrobial activity against Bacillus subtilis MTCC 2423 after 24 hr by serial dilution method; assay type: functional
[1] = Octanol-water partition coefficient, log P of the compound; assay type: physicochemical
Escherichia coli = test: Antimicrobial activity against Escherichia coli MTCC 739 after 24 hr by serial dilution method; assay type: functional
Staphylococcus aureus = test: Antimicrobial activity against Staphylococcus aureus MTCC 1430 after 24 hr by serial dilution method; assay type: functional

Row | Structure (SMILES) | -logMIC (Aspergillus niger) | -logMIC (Candida albicans) | -logMIC (Bacillus subtilis) | logP [1] | -logMIC (Escherichia coli) | -logMIC (Staphylococcus aureus)
1 | COc1ccccc1C(=O)O[C@@H]1C[C@H](C)CC[C@H]1C(C)C | 2.07 | 1.97 | 1.98 | 4.57 | 1.97 | 2.06
2 | CC(Cl)C(=O)O[C@@H]1C[C@H](C)CC[C@H]1C(C)C (stereo partly specified) | 1.9 | 1.9 | 1.9 | 4.04 | 1.9 | 1.6
3 | CC(C)[C@@H]1CC[C@@H](C)C[C@H]1OC(=O)CCl | 2.17 | 1.87 | 1.86 | 3.5 | 1.79 | 2
4 | CCC(=O)O[C@@H]1C[C@H](C)CC[C@H]1C(C)C | 2.13 | 1.83 | 1.88 | 3.54 | 1.75 | 1.75
5 | CC(=O)O[C@@H]1C[C@H](C)CC[C@H]1C(C)C | 1.98 | 1.8 | 1.8 | 2.91 | 1.5 | 1.5
6 | CC(C)[C@@H]1CC[C@@H](C)C[C@H]1OC(=O)/C=C/c1ccc([N+](=O)[O-])cc1 | 2.18 | 2.33 | 2.33 | 5.18 | 2.33 | 2.03
7 | CC(C)[C@@H]1CC[C@@H](C)C[C@H]1OC(=O)/C=C/c1cccc([N+](=O)[O-])c1 | 2.33 | 2.33 | 2.03 | 5.18 | 2.14 | 2.33
8 | CC(C)[C@@H]1CC[C@@H](C)C[C@H]1OC(=O)/C=C/c1ccccc1[N+](=O)[O-] | 2.33 | 2.33 | 2.03 | 5.18 | 2.33 | 2.33
9 | CC(C)[C@@H]1CC[C@@H](C)C[C@H]1OC(=O)/C=C/c1ccccc1 | 2.01 | 1.96 | 2.26 | 5.23 | 1.96 | 1.96
10 | Cc1cccc(C(=O)O[C@@H]2C[C@H](C)CC[C@H]2C(C)C)c1 | 2.03 | 1.94 | 2.02 | 5.29 | 1.93 | 2.05
11 | Cc1ccc(C(=O)O[C@@H]2C[C@H](C)CC[C@H]2C(C)C)cc1 | 2.04 | 1.94 | 2.1 | 5.29 | 1.9 | 1.85
12 | Cc1ccccc1C(=O)O[C@@H]1C[C@H](C)CC[C@H]1C(C)C | 1.94 | 1.64 | 1.94 | 5.29 | 2.01 | 1.94
13 | COc1ccc(C(=O)O[C@@H]2C[C@H](C)CC[C@H]2C(C)C)cc1 | 2.04 | 1.67 | 2.01 | 4.57 | 1.98 | 2.01
14 | COc1cccc(C(=O)O[C@@H]2C[C@H](C)CC[C@H]2C(C)C)c1 | 2.11 | 1.97 | 1.99 | 4.57 | 1.97 | 1.97
15 | CC(C)[C@@H]1CC[C@@H](C)C[C@H]1OC(=O)c1ccc([N+](=O)[O-])cc1[N+](=O)[O-] | 2.05 | 2.05 | 2.05 | 4.73 | 2.35 | 2.35
16 | CC(C)[C@@H]1CC[C@@H](C)C[C@H]1OC(=O)c1ccc([N+](=O)[O-])cc1 | 2.18 | 2.29 | 2.02 | 4.78 | 1.99 | 2.29
17 | CC(C)[C@@H]1CC[C@@H](C)C[C@H]1OC(=O)c1cccc([N+](=O)[O-])c1 | 2.29 | 2.33 | 1.99 | 4.78 | 2.29 | 2.29
18 | CC(C)[C@@H]1CC[C@@H](C)C[C@H]1OC(=O)c1ccc(Cl)cc1Cl | 1.95 | 1.72 | 1.96 | 5.86 | 2.02 | 2.02
19 | CC(C)[C@@H]1CC[C@@H](C)C[C@H]1OC(=O)c1ccccc1[N+](=O)[O-] | 2.17 | 2.29 | 2.03 | 4.78 | 2.29 | 1.99
20 | CC(C)[C@@H]1CC[C@@H](C)C[C@H]1OC(=O)c1ccc(Cl)cc1 | 2.05 | 1.67 | 1.97 | 5.34 | 1.67 | 1.88
21 | CC(C)[C@@H]1CC[C@@H](C)C[C@H]1OC(=O)c1cccc(Cl)c1 | 1.97 | 1.97 | 1.97 | 5.34 | 1.88 | 1.97
22 | CC(C)[C@@H]1CC[C@@H](C)C[C@H]1OC(=O)c1ccc(Br)cc1 | 2.04 | 1.85 | 2.04 | 5.61 | 2.02 | 1.98
23 | CC(C)[C@@H]1CC[C@@H](C)C[C@H]1OC(=O)c1ccccc1Cl | 2.1 | 1.97 | 1.91 | 5.34 | 2.1 | 1.97
24 | CC(C)[C@@H]1CC[C@@H](C)C[C@H]1OC(=O)c1cccc(Br)c1 | 2.04 | 2.04 | 1.96 | 5.61 | 1.88 | 1.96
25 | CC(C)[C@@H]1CC[C@@H](C)C[C@H]1OC(=O)c1ccccc1Br | 2.04 | 2.04 | 2.04 | 5.61 | 1.98 | 2.04
26 | OC(Cn1cncn1)(Cn1cncn1)c1ccc(F)cc1F [FLUCONAZOLE] | 2.64 | 2.64 | – | – | – | –
27 | CC(C)[C@@H]1CC[C@@H](C)C[C@H]1OC(=O)c1ccccc1 [MENTHYL BENZOATE] | 1.92 | 1.92 | 2.01 | 4.82 | 2.01 | 1.92
28 | CCn1cc(C(=O)O)c(=O)c2cc(F)c(N3CCNCC3)cc21 [NORFLOXACIN] | – | – | 2.61 | – | 2.61 | 2.61
